target: T1, human c-Met (Homo sapiens, UniProt P08581); test: in vitro kinase assay (homogeneous time-resolved tyrosine kinase assay, METKA); format: biochemical; details: recombinant GST-tagged c-Met cytosolic domain, HTRF, 50 μM MgATP; read-out: Biological Activity (METKA IC50) Activity Code
T1 construct: Recombinant GST-tagged cytosolic domains of human c-Met; 6xHis; made in house; host or cells: Sf9 or Sf21 insect cells (baculovirus)
Description: Recombinant GST-tagged cytosolic domains of human c-Met and other receptor tyrosine kinases including mouse c-Met, human Ron, KDR, IGFR, EGFR, FGFR, Mer, TrkA and Tie2 are used to determine whether the compounds of the instant invention modulate the enzymatic activities of these kinases.
Soluble recombinant GST-tagged cytosolic domains of c-Met and other receptor tyrosine kinases are expressed in a baculovirus system (Pharmingen) according to a protocol recommended by the manufacturer. The c-DNA encoding each cytosolic domain is subcloned into a baculovirus expression vector (pGcGHLT-A, B or C, Pharmingen) containing an in frame 6× histidine tag and a GST tag. The resulting plasmid construct and BaculoGold baculovirus DNA (Pharmingen) are used to co-transfect Sf9 or Sf21 insect cells. After confirming expression of GST-tagged kinase fusion, a high titer recombinant baculovirus stock is produced, expression conditions are optimized, and a scaled up expression of rat KDR-GST fusion is performed. The fusion kinase is then purified from the insect cell lysate by affinity chromatography using glutathione agarose (Pharmingen). The purified protein is dialyzed against 50% glycerol, 2 mM DTT, 50 mM Tris-HCl (pH 7.4) and stored at −20° C. The protein concentrations of the fusion proteins are determined using Coomassie Plus Protein Assay (Pierce) with BSA as standard.
The kinase activities of c-Met and other kinases are measured using a modified version of the homogeneous time-resolved tyrosine kinase assay described by Park et al. (1999, Anal. Biochem. 269:94-104).
The procedure for determining the potency of a compound to inhibit c-Met kinase comprises the following steps: • 1. Prepare 3-fold serial diluted compound solutions in 100% dimethyl sulfoxide (DMSO) at 20× of the desired final concentrations in a 96 well plate. • 2. Prepare a master reaction mix containing 6.67 mM MgCl2, 133.3 mM NaCl, 66.7 mM Tris-HCl (pH 7.4), 0.13 mg/ml BSA, 2.67 mM dithiothreitol, 0.27 nM recombinant c-Met and 666.7 nM biotinylated synthetic peptide substrate (biotin-ahx-EQEDEPEGDYFEWLE-CONH2) (SEQ.ID.NO.:1). • 3. In a black assay plate, add 2.5 μl of compound solution (or DMSO) and 37.5 μl of master reaction mix per well. Initiate the kinase reaction by adding 10 μl of 0.25 mM MgATP per well. Allow the reactions to proceed for 80 min at room temperature. The final conditions for the reaction are 0.2 nM c-Met, 0.5 μM substrate, 50 μM MgATP, […], 100 mM NaCl, 2 mM DTT, 0.1 mg/ml BSA, 50 mM Tris (pH 7.4) and 5% DMSO. • 4. Stop the kinase reaction with 50 μl of Stop/Detection buffer containing 10 mM EDTA, 25 mM HEPES, 0.1% TRITON X-100, 0.126 μg/ml Eu-chelate labeled anti-phosphotyrosine antibody PY20 (cat. #AD0067, PerkinElmer) and 45 μg/ml Streptavidin-allophycocyanin conjugate (cat. #PJ25S, Prozyme). • 5. Read HTRF signals on a Victor reader (PerkinElmer) in HTRF mode after 60 min. • 6. IC50 is determined by fitting the observed relationship between compound concentration and HTRF signal with a 4-parameter logistic equation. Essentially the same procedure was used to determine the potency of compounds to inhibit mouse c-Met, human Ron, KDR, IGFR, EGFR, FGFR, Mer, TrkA and Tie2 except that the concentration of enzyme varied in individual assays (0.2 nM mouse c-Met; 2.5 nM Ron, 8 nM KDR; 0.24 nM IGFR; 0.24 nM EGFR; 0.14 nM FGFR; 16 nM Mer; 8 nM TrkA; 8 nM Tie2).

T1 sequence (P08581 956-1390 limits assumed): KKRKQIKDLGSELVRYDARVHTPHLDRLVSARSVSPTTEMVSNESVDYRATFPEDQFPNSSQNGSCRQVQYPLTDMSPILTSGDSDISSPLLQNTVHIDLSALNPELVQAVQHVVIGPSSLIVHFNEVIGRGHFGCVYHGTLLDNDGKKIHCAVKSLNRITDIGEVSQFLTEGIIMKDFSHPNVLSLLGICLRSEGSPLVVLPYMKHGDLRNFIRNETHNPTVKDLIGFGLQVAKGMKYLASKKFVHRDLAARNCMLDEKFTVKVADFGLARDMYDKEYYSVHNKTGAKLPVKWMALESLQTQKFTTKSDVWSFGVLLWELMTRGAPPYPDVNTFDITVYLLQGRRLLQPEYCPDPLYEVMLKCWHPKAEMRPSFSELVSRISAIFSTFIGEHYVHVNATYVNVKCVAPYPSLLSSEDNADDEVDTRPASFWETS

IC50, < 100 nM:
COc1cnc2ccc(OCc3nn(-c4cnn(C)c4)ccc3=O)cc2c1 [Example 35, 3-{[(3-methoxyquinolin-6-yl)oxy]methyl}-1-(1-methyl-1H-pyrazol-4-yl)pyridazin-4(1H)-one]
CCn1cc(-n2ccc(=O)c(COc3ccc4ncc(OCCOC)cc4c3)n2)cn1 [Example 36, 1-(1-ethyl-1H-pyrazol-4-yl)-3-({[3-(2-methoxyethoxy)quinolin-6-yl]oxy}methyl)pyridazin-4(1H)-one]
Cn1cc(-n2ccc(=O)c(COc3ccc4ncc(F)cc4c3)n2)cn1 [Example 37, 3-{[(3-fluoroquinolin-6-yl)oxy]methyl}-1-(1-methyl-1H-pyrazol-4-yl)pyridazin-4(1H)-one]
COCCOc1cnc2ccc(OCc3nn(-c4cccc(Br)c4)ccc3=O)cc2c1 [Example 38, 1-(3-bromophenyl)-3-({[3-(2-methoxyethoxy)quinolin-6-yl]oxy}methyl)pyridazin-4(1H)-one]
COCc1cn(-c2cnc3ccc(OCc4nn(-c5cnn(C)c5)ccc4=O)cc3c2)nn1 [Example 40, 3-[({3-[4-(methoxymethyl)-1H-1,2,3-triazol-1-yl]quinolin-6-yl}oxy)methyl]-1-(1-methyl-1H-pyrazol-4-yl)pyridazin-4(1H)-one]
Cn1cc(-n2ccc(=O)c(COc3ccc4ncc(-n5ccnn5)cc4c3)n2)cn1 [Example 42, 1-(1-Methyl-1H-pyrazol-4-yl)-3-({[3-(1H-1,2,3-triazol-1-yl)quinolin-6-yl]oxy}methyl)pyridazin-4(1H)-one]
CCOc1ccnc2ccc(OCc3nn(-c4cnn(C)c4)ccc3=O)cc12 [Example 43, 3-{[(4-Ethoxyquinolin-6-yl)oxy]methyl}-1-(1-methyl-1H-pyrazol-4-yl)pyridazin-4(1H)-one]
CCOc1cnc2ccc(OCc3nn(-c4cc(F)cc(C#N)c4)ccc3=O)cc2c1 [Example 44, 3-[3-{[(3-ethoxyquinolin-6-yl)oxy]methyl}-4-oxopyridazin-1(4H)-yl]-5-fluorobenzonitrile]
CCOc1cnc2ccc(OCc3nn(-c4cc(Cl)cc(C#N)c4)ccc3=O)cc2c1 [Example 45, 3-chloro-5-[3-{[(3-ethoxyquinolin-6-yl)oxy]methyl}-4-oxopyridazin-1(4H)-yl]benzonitrile]
CCOc1cnc2ccc(OCc3nn(-c4ccc(F)c(F)c4)ccc3=O)cc2c1 [Example 46, 1-(3,4-difluorophenyl)-3-{[(3-ethoxyquinolin-6-yl)oxy]methyl}pyridazin-4(1H)-one]
CCOc1cnc2ccc(OCc3nn(-c4cc(F)cc(F)c4)ccc3=O)cc2c1 [Example 47, 1-(3,5-difluorophenyl)-3-{[(3-ethoxyquinolin-6-yl)oxy]methyl}pyridazin-4(1H)-one]
COc1ccnc2ccc(OCc3nn(-c4cnn(C)c4)ccc3=O)cc12 [Example 48, 3-{[(4-Methoxyquinolin-6-yl)oxy]methyl}-1-(1-methyl-1H-pyrazol-4-yl)pyridazin-4(1H)-one]
Cc1ccnc2ccc(OCc3nn(-c4cnn(C)c4)ccc3=O)cc12 [Example 50, 1-(1-methyl-1H-pyrazol-4-yl)-3-{[(4-methylquinolin-6-yl)oxy]methyl}pyridazin-4(1H)-one]
NC(=O)c1cccc(-n2ccc(=O)c(COc3ccc4ncccc4c3)n2)c1 [Example 51, 3-{4-Oxo-3-[(quinolin-6-yloxy)methyl]pyridazin-1(4H)-yl}benzamide]
Cn1cc(-n2ccc(=O)c(CCc3ccc4ncccc4c3)n2)cn1 [Example 53, 1-(1-Methyl-1H-pyrazol-4-yl)-3-[2-(quinolin-6-yl)ethyl]pyridazin-4(1H)-one]
COCCOc1cnc2ccc(CCc3nn(-c4cnn(C)c4)ccc3=O)cc2c1 [Example 57, 3-{2-[3-(2-methoxyethoxy)quinolin-6-yl]ethyl}-1-(1-methyl-1H-pyrazol-4-yl)pyridazin-4(1H)-one]
CCOc1cnc2ccc(CCc3nn(-c4cnn(C)c4)ccc3=O)cc2c1 [Example 58, 3-[2-(3-ethoxyquinolin-6-yl)ethyl]-1-(1-methyl-1H-pyrazol-4-yl)pyridazin-4(1H)-one]
COc1ccnc2ccc(CCc3nn(-c4cnn(C)c4)ccc3=O)cc12 [Example 59, 3-[2-(4-methoxyquinolin-6-yl)ethyl]-1-(1-methyl-1H-pyrazol-4-yl)pyridazin-4(1H)-one]
Cn1cc(-n2ccc(=O)c(COc3ccc4ncc(O)cc4c3)n2)cn1 [Example 61, 3-Hydroxy-6-{[1-(1-methyl-1H-pyrazol-4-yl)-4-oxo-1,4-dihydropyridazin-3-yl]methoxy}quinolinium chloride]
Cn1cc(-n2ccc(=O)c(COc3ccc4ncc(OCC(C)(C)O)cc4c3)n2)cn1 [Example 62, 3-({[3-(2-Hydroxy-2-methylpropoxy)quinolin-6-yl]oxy}methyl)-1-(1-methyl-1H-pyrazol-4-yl)pyridazin-4(1H)-one]
Cn1cc(-n2ccc(=O)c(COc3ccc4ncc(OC5COC5)cc4c3)n2)cn1 [Example 63, 1-(1-Methyl-1H-pyrazol-4-yl)-3-({[3-(oxetan-3-yloxy)quinolin-6-yl]oxy}methyl)pyridazin-4(1H)-one]

IC50, 1000 to 3000 nM:
COCCOc1cnc2ccc(OCc3nn(-c4cccc(C(=O)N(C)C)c4)ccc3=O)cc2c1 [Example 52, 3-[3-({[3-(2-methoxyethoxy)quinolin-6-yl]oxy}methyl)-4-oxopyridazin-1(4H)-yl]-N,N-dimethylbenzamide]
Cn1cc(-n2ccc(=O)c(CCc3ccnc4ccccc34)n2)cn1 [Example 54, 1-(1-methyl-1H-pyrazol-4-yl)-3-(2-quinolin-4-ylethyl)pyridazin-4(1H)-one]
Cn1cc(-n2ccc(=O)c(CCc3ccnc4[nH]ccc34)n2)cn1 [Example 55, 1-(1-methyl-1H-pyrazol-4-yl)-3-[2-(1H-pyrrolo[2,3-b]pyridin-4-yl)ethyl]pyridazin-4(1H)-one]
COC(=O)c1ccc(CCc2nn(-c3cnn(C)c3)ccc2=O)cc1 [Example 56, methyl 4-{2-[1-(1-methyl-1H-pyrazol-4-yl)-4-oxo-1,4-dihydropyridazin-3-yl]ethyl}benzoate]
Cn1cc(-n2ccc(=O)c(CCc3ccc4nccnc4c3)n2)cn1 [Example 60, 1-(1-Methyl-1H-pyrazol-4-yl)-3-[2-(quinoxalin-6-yl)ethyl]pyridazin-4(1H)-one]

IC50, 100 to 1000 nM:
Cn1cc(-n2ccc(=O)c(COc3ccc4ncc(-n5cnnc5)cc4c3)n2)cn1 [Example 39, 1-(1-methyl-1H-pyrazol-4-yl)-3-({[3-(4H-1,2,4-triazol-4-yl)quinolin-6-yl]oxy}methyl)pyridazin-4(1H)-one]
Cn1cc(-n2ccc(=O)c(COc3ccc4ncc(-n5cc(COC6CCNCC6)nn5)cc4c3)n2)cn1 [Example 41, 1-(1-methyl-1H-pyrazol-4-yl)-3-{[(3-{4-[(piperidin-4-yloxy)methyl]-1H-1,2,3-triazol-1-yl}quinolin-6-yl)oxy]methyl}pyridazin-4(1H)-one]
COc1ccc2cc(OCc3nn(-c4cnn(C)c4)ccc3=O)ccc2n1 [Example 49, 3-{[(2-methoxyquinolin-6-yl)oxy]methyl}-1-(1-methyl-1H-pyrazol-4-yl)pyridazin-4(1H)-one]

Reference: patent publication US20130116231A1, “TYROSINE KINASE INHIBITORS” (Merck Sharp & Dohme Corp., priority 2010, published 2013)
